Tests used:
CDK4/cyclin D3 = molecular target: T1, CDK4/cyclin D3 (Homo sapiens, UniProt P11802); experiment: Human CDK4/cyclin D3 inhibitory activity (QS S Assist CDK4/Cyclin D3_FP Kit, IMAP fluorescence polarization); type: biochemical; settings: Human CDK4/cyclin D3 inhibitory activity; read-out: CDK4 Activity symbol
T1 construct: purchased Carna Biosciences, Inc. QS S Assist CDK4/Cyclin D3_FP Kit
Procedure, shortened: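 IMAP fluorescence polarization kit: CDK4/cyclin D3 at 12.5-25 ng/well with kit ATP/substrate/metal mix in 20 mM HEPES pH 7.4, 0.01% Tween20, 2 mM DTT, 45 min at room temperature. FP read at 485/535 nm after 30 min binding; IC50 from dose-response fit of percent inhibition versus enzyme and no-enzyme controls.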

CDK2/cyclin A2 = molecular target: T2, CDK2/cyclin A2 (Homo sapiens, UniProt P24941); experiment: Human CDK2/cyclin A2 inhibitory activity (QS S Assist CDK2/Cyclin A2_FP Kit, IMAP fluorescence polarization); type: biochemical; settings: Human CDK2/cyclin A2 inhibitory activity; read-out: CDK2 Activity symbol
T2 construct: purchased Carna Biosciences, Inc. QS S Assist CDK2/Cyclin A2_FP Kit
Procedure, shortened: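 Kinase activity read as fluorescence polarization (485/535 nm) after phosphorylated fluorescent substrate binds IMAP reagent (30 min, RT, dark). Enzyme (2.5 ng/well) reacted 60 min at RT with ATP/substrate/metal in HEPES pH 7.4 buffer with Tween 20 and DTT; no-enzyme wells define 0% activity; IC50 by curve fit.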

T1 sequence (P11802 whole entry): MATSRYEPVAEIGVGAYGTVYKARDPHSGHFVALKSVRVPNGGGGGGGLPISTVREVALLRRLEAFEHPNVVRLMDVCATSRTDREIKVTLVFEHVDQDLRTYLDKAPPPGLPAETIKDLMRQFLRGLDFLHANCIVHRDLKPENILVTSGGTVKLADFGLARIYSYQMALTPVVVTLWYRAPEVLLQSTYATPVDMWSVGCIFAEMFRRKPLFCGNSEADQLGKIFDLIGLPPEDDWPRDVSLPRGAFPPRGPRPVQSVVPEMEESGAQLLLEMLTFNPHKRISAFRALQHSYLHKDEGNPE
T1 sequence (P30281 whole entry partner): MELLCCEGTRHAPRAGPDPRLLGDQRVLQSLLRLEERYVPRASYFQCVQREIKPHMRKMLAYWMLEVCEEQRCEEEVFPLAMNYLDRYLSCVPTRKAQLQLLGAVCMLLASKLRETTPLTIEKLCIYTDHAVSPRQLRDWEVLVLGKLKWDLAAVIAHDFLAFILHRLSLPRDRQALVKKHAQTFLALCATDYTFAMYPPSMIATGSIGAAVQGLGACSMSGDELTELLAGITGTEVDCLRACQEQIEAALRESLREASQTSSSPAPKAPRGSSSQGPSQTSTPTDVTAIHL

Row | IC50 (CDK4/cyclin D3) [nM] | IC50 (CDK2/cyclin A2) [nM] | Compound
1 | < 10 | ≥ 100 | COCC(C)(C)Nc1nc([C@@H](C)O)cc2cnc(Nc3ccc(C4CCNCC4)cn3)nc12 [Compound 215]
2 | < 10 | 10 to 100 | CC(C)Nc1nc(C(F)F)cc2cnc(Nc3ccc(CN4CCCNC4=O)cn3)nc12 [Compound 219]
3 | < 10 | ≥ 100 | CO[C@H](C)c1cc2cnc(Nc3ccc(CCO)cn3)nc2c(NC(C)C)n1 [Compound 223]
4 | 10 to 100 | ≥ 100 | COCC(C)(C)Nc1nc([C@@H](C)O)cc2cnc(Nc3ccc(CCO)cn3)nc12 [Compound 228]
5 | 10 to 100 | ≥ 100 | CO[C@H](C)c1cc2cnc(Nc3ccc(CC(N)=O)cn3)nc2c(NC(C)C)n1 [Compound 231]
6 | 10 to 100 | ≥ 100 | COCC(C)(C)Nc1nc([C@@H](C)O)cc2cnc(Nc3ccc(NCCO)nn3)nc12 [Compound 235]
7 | < 10 | ≥ 100 | CCCN1CCN(Cc2ccc(Nc3ncc4cc([C@@H](C)OC)nc(NC(C)C)c4n3)nc2)CC1 [Compound 239]
8 | < 10 | ≥ 100 | CCN1CCN(Cc2ccc(Nc3ncc4cc([C@@H](C)OC)nc(NC(C)C)c4n3)nc2)CC1 [Compound 240]
9 | < 10 | ≥ 100 | CCN1CCN(Cc2ccc(Nc3ncc4cc([C@@H](C)O)nc(NC(C)(C)COC)c4n3)nc2)CC1 [Compound 244]
10 | < 10 | ≥ 100 | CC(C)Nc1nc([C@@H](C)O)cc2cnc(Nc3ccc(OCCN(C)C)cn3)nc12 [Compound 245]
11 | 10 to 100 | ≥ 100 | COCC(C)(C)Nc1nc([C@@H](C)O)cc2cnc(Nc3ccc(CN4CCNCC4=O)cn3)nc12 [Compound 248]
12 | < 10 | ≥ 100 | C[C@@H](O)c1cc2cnc(Nc3ccc(N4CCNCC4)nn3)nc2c(N[C@@H]2CCOC2)n1 [Compound 252]
13 | < 10 | ≥ 100 | C[C@@H](O)c1cc2cnc(Nc3ccc(CN4CCNCC4)cn3)nc2c(N[C@H]2CCCOC2)n1 [Compound 256]
14 | < 10 | ≥ 100 | C[C@@H](O)c1cc2cnc(Nc3ccc(CN4CCNCC4)cn3)nc2c(N[C@H]2CCOC2)n1 [Compound 258]
15 | < 10 | ≥ 100 | CC(C)Nc1nc([C@@H](C)O)cc2cnc(Nc3ccc(N4CCNCC4)nn3)nc12 [Compound 261, (R)-1-(8-(isopropylamino)-2-((6-(piperazin-1-yl)pyridazin-3-yl)amino)pyrido[3,4-d]pyrimidin-6-yl)ethanol]
16 | < 10 | ≥ 100 | COCC(C)(C)Nc1nc([C@@H](C)O)cc2cnc(Nc3ccc(C(C)N4CCNCC4)cn3)nc12 (stereo partly shown) [Compound 265]
17 | 10 to 100 | ≥ 100 | COCC(C)(C)Nc1nc([C@@H](C)O)cc2cnc(Nc3ccc(N4CC[C@H](O)CC4=O)cn3)nc12 [Compound 268]
18 | < 10 | ≥ 100 | CO[C@H](C)c1cc2cnc(Nc3ccc(CN4CC[C@@H](F)C4)cn3)nc2c(NC(C)C)n1 [Compound 271]
19 | < 10 | ≥ 100 | CO[C@H](C)c1cc2cnc(Nc3ccc(CN4CCCOCC4)cn3)nc2c(NC(C)C)n1 [Compound 273]
20 | < 10 | ≥ 100 | COC1CCN(Cc2ccc(Nc3ncc4cc([C@@H](C)OC)nc(NC(C)C)c4n3)nc2)CC1 [Compound 274]
21 | < 10 | ≥ 100 | CO[C@H](C)c1cc2cnc(Nc3ccc(CN4CCN(CCF)CC4)cn3)nc2c(NC(C)C)n1 [Compound 276]

The remaining lines, values behind:

Row | Compound | IC50 (CDK4/cyclin D3) [nM] | IC50 (CDK2/cyclin A2) [nM]
22 | COCC(C)(C)Nc1nc([C@@H](C)O)cc2cnc(Nc3ccc(N4CCOCC4)nn3)nc12 [Compound 216] | 10 to 100 | ≥ 100
23 | CC(C)Nc1nc(C(F)F)cc2cnc(Nc3ccc(C4CCNC(=O)C4)cn3)nc12 (stereo not shown) [Compound 218] | < 10 | 10 to 100
24 | COCC(C)(C)Nc1nc([C@@H](C)O)cc2cnc(Nc3ccc(CC(N)=O)cn3)nc12 [Compound 222] | 10 to 100 | ≥ 100
25 | CO[C@H](C)c1cc2cnc(Nc3ccc(C4CCN(C(C)=O)CC4)cn3)nc2c(NC(C)C)n1 [Compound 224] | < 10 | ≥ 100
26 | COCC(C)(C)Nc1nc([C@@H](C)O)cc2cnc(Nc3ccc(C4CCN(C(C)=O)CC4)cn3)nc12 [Compound 225] | < 10 | ≥ 100
27 | CC(C)Nc1nc(C(F)F)cc2cnc(Nc3ccc(N4CCCC(O)C4)nn3)nc12 (stereo not shown) [Compound 226] | < 10 | 10 to 100
28 | CO[C@H](C)c1cc2cnc(Nc3ccc(OCCN(C)C)cn3)nc2c(NC(C)C)n1 [Compound 227] | < 10 | ≥ 100
29 | CC(C)Nc1nc([C@@H](C)O)cc2cnc(Nc3ccc(CCCN4CCOCC4=O)cn3)nc12 [Compound 229] | < 10 | ≥ 100
30 | CO[C@H](C)c1cc2cnc(Nc3ccc(C4CCNCC4)cn3)nc2c(NC(C)C)n1 [Compound 232] | < 10 | ≥ 100
31 | CC(C)Nc1nc([C@@H](C)O)cc2cnc(Nc3ccc(CN4CCOCC4)cn3)nc12 [Compound 233] | < 10 | ≥ 100
32 | CC(C)Nc1nc([C@@H](C)O)cc2cnc(Nc3ccc(CN4CCNC(=O)C4)cn3)nc12 [Compound 234] | < 10 | ≥ 100
33 | CC(C)Nc1nc(C(F)F)cc2cnc(Nc3ccc(CN4CCC(C(=O)NS(C)(=O)=O)CC4)cn3)nc12 [Compound 236] | < 10 | 10 to 100
34 | CO[C@H](C)c1cc2cnc(Nc3ccc(CN4CCNCC4=O)cn3)nc2c(NC(C)C)n1 [Compound 237] | 10 to 100 | ≥ 100
35 | CC(C)Nc1nc([C@@H](C)O)c(Cl)c2cnc(Nc3ccc(CN4CCNCC4)cn3)nc12 [Compound 238] | < 10 | ≥ 100
36 | COCCNCc1ccc(Nc2ncc3cc([C@@H](C)O)nc(NC(C)C)c3n2)nc1 [Compound 241] | < 10 | ≥ 100
37 | COCCNCc1ccc(Nc2ncc3cc([C@@H](C)O)nc(NC(C)(C)COC)c3n2)nc1 [Compound 242] | 10 to 100 | ≥ 100
38 | CCCN1CCN(Cc2ccc(Nc3ncc4cc([C@@H](C)O)nc(NC(C)(C)COC)c4n3)nc2)CC1 [Compound 243] | < 10 | ≥ 100
39 | CO[C@H](C)c1cc2cnc(Nc3ccc(CN4CCNCC4)nn3)nc2c(NC(C)C)n1 [Compound 246] | < 10 | ≥ 100
40 | CC(C)Nc1nc([C@@H](C)O)c(Cl)c2cnc(Nc3ccc(N4CCNCC4=O)cn3)nc12 [Compound 247] | < 10 | ≥ 100

Row | Compound | IC50 (CDK4/cyclin D3) [nM] | IC50 (CDK2/cyclin A2) [nM]
41 | CO[C@H](C)c1cc2cnc(Nc3ccc(N4CCN(CCO)CC4)nn3)nc2c(NC(C)C)n1 [Compound 249] | < 10 | ≥ 100
42 | C[C@@H](O)c1cc2cnc(Nc3ccc(N4CCNCC4)nn3)nc2c(NC2CCOCC2)n1 [Compound 250] | < 10 | ≥ 100
43 | C[C@@H](O)c1cc2cnc(Nc3ccc(N4CCNCC4)nn3)nc2c(N[C@H]2CCOC2)n1 [Compound 251] | < 10 | ≥ 100
44 | C[C@@H](O)c1cc2cnc(Nc3ccc(N4CCNCC4)nn3)nc2c(N[C@H]2CCCOC2)n1 [Compound 253] | < 10 | ≥ 100
45 | C[C@@H](O)c1cc2cnc(Nc3ccc(N4CCNCC4)nn3)nc2c(N[C@@H]2CCCOC2)n1 [Compound 254] | < 10 | ≥ 100
46 | C[C@@H](O)c1cc2cnc(Nc3ccc(CN4CCNCC4)cn3)nc2c(NC2CCOCC2)n1 [Compound 255] | < 10 | ≥ 100
47 | C[C@@H](O)c1cc2cnc(Nc3ccc(CN4CCNCC4)cn3)nc2c(N[C@@H]2CCCOC2)n1 [Compound 257] | < 10 | ≥ 100
48 | C[C@@H](O)c1cc2cnc(Nc3ccc(CN4CCNCC4)cn3)nc2c(N[C@@H]2CCOC2)n1 [Compound 259] | < 10 | ≥ 100
49 | CC(C)Nc1nc([C@@H](C)O)cc2cnc(Nc3ccc(N4CCC(O)CC4)nn3)nc12 [Compound 260] | < 10 | ≥ 100
50 | CC(C)Nc1nc([C@@H](C)O)cc2cnc(Nc3ccc(CN4CCNCC4=O)cn3)nc12 [Compound 262] | 10 to 100 | ≥ 100
51 | CNCC(C)(C)c1ccc(Nc2ncc3cc([C@@H](C)O)nc(NC(C)C)c3n2)nc1 [Compound 263] | < 10 | ≥ 100
52 | CNCC(C)(C)c1ccc(Nc2ncc3cc([C@@H](C)O)nc(NC(C)(C)COC)c3n2)nc1 [Compound 264] | < 10 | ≥ 100
53 | CO[C@H](C)c1cc2cnc(Nc3ccc(C(C)N4CCNCC4)cn3)nc2c(NC(C)C)n1 (stereo partly shown) [Compound 266] | < 10 | ≥ 100
54 | CO[C@H](C)c1cc2cnc(Nc3ccc(N4CC[C@H](O)CC4=O)cn3)nc2c(NC(C)C)n1 [Compound 267] | < 10 | ≥ 100
55 | CC(C)Oc1nc(C(C)O)cc2cnc(Nc3ccc(N4CCNCC4)nn3)nc12 (stereo not shown) [Compound 269] | < 10 | ≥ 100
56 | CO[C@H](C)c1cc2cnc(Nc3ccc(CN4CC[C@@H](O)C4)cn3)nc2c(NC(C)C)n1 [Compound 270] | < 10 | ≥ 100
57 | CO[C@H](C)c1cc2cnc(Nc3ccc(CN4CC5CC(C4)O5)cn3)nc2c(NC(C)C)n1 [Compound 272] | < 10 | ≥ 100
58 | CO[C@H](C)c1cc2cnc(Nc3ccc(CN4CCn5ccnc5C4)cn3)nc2c(NC(C)C)n1 [Compound 275] | 10 to 100 | ≥ 100
59 | CO[C@H](C)c1cc2cnc(Nc3ccc(CN4CCc5nc(C)[nH]c5C4)cn3)nc2c(NC(C)C)n1 [Compound 277] | ≥ 100 | ≥ 100
